These results are taken from publication PMC3930709, “Selective Activation of hTRPV1 by N-Geranyl Cyclopropylcarboxamide, an Amiloride-Insensitive Salt Taste Enhancer” (PLoS ONE, 2014).

In one test the test system is human δβγ ENaC. Set-up: method as in PMID 18326490. Particulars: cited from earlier work.
The subject of test [1] is chorda tympani (CT) taste nerve response to NaCl. Set-up: method as in PMID 12736236, PMID 16809639. Particulars: cited from earlier work.
The next test relates to human αβγ ENaC. Details: method as in PMID 18326490. The conditions noted are these: cited from earlier work.
Test [2] concerns lingual surface potential to salt stimuli. Set-up: method as in PMID 12736236, PMID 16809639. Particulars: amiloride 100 µM, humans, gustometer; cited from earlier work.
Test [3] addresses T1, αβγ hENaC (Homo sapiens, UniProt P37088+P51168+P51170).
T1 construct: GFP; host or cells: HEK293T
T1 sequence (P37088 1-669): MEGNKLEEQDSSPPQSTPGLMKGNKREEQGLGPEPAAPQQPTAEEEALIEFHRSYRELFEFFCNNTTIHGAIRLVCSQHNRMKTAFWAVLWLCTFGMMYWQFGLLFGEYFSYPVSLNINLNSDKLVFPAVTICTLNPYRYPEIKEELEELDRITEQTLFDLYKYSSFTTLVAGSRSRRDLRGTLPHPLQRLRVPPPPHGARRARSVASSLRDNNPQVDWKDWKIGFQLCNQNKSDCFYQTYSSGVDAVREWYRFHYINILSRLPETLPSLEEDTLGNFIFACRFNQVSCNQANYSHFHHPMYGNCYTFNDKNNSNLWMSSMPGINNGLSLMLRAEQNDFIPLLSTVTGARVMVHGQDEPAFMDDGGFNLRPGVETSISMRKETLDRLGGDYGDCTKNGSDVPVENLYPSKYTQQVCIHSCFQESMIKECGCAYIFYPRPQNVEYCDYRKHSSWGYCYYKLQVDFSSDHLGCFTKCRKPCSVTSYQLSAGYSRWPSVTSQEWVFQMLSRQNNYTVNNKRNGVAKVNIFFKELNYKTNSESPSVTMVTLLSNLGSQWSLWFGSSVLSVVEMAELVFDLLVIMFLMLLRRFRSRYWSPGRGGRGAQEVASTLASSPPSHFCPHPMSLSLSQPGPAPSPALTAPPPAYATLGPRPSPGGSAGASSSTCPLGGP
T1 sequence (P51168 1-640): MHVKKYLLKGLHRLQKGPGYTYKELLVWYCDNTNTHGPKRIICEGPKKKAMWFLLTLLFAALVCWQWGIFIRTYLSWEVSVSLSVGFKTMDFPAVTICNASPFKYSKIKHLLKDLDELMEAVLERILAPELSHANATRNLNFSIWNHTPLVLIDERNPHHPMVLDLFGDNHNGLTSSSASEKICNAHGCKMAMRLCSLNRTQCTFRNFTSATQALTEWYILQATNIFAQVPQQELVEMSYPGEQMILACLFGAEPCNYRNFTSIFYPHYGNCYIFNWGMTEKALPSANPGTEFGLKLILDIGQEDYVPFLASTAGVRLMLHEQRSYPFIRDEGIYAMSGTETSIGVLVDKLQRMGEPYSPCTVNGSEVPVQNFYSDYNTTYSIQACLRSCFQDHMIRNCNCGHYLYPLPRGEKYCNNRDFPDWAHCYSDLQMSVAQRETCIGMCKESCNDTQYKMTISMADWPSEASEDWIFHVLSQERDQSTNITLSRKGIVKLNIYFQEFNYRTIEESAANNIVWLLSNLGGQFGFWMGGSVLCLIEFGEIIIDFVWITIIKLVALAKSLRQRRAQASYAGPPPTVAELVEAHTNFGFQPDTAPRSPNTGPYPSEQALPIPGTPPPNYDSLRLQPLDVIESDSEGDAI
T1 sequence (P51170 1-649): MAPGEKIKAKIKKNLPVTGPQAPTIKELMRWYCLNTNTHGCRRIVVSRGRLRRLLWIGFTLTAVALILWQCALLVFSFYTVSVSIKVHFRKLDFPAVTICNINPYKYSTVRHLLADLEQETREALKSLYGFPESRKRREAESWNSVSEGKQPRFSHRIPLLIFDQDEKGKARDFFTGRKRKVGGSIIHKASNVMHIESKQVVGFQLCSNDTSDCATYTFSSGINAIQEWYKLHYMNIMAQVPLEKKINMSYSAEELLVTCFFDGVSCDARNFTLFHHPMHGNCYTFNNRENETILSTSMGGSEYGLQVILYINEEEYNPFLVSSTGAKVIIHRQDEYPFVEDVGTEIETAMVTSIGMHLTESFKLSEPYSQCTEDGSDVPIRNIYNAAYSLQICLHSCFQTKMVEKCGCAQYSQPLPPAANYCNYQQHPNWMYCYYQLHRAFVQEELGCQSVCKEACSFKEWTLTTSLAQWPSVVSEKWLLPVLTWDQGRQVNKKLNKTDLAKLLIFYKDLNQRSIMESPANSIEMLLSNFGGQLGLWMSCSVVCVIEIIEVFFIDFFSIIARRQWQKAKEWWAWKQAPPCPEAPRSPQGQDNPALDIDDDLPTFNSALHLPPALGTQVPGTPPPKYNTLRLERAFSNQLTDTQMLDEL
Details: method as in PMID 18326490. Particulars: read-out: EC50 of S3969 obtained by patch-clamp; cited from earlier work. In general terms: The patch-clamp technique gives a direct electrical read-out from membranes.

The target of test [4] is T1, αβγ hENaC. The test can be described thus: Membrane potential assay (FMP dye) on αβγ hENaC-expressing cells. It counts as cell-based. Particulars: 0.03-10 µM; read-out: EC50, depolarization of membrane potential in hENaC expressing cells. On the procedure:
The α, β, and γ hENaC subunits were cloned from OriGene (Rockville, MD; GenBank accession number […] for SCNN1A, NM_000336 for SCNN1B and NM_001039 for SCNN1G). α, GFP-tagged β, and γ hENaC were cloned into a CMV promoter-based vector and expressed constitutively. The HEK293T cells were seeded onto a 35 mm dish and transfected with α, β, and γ hENaC expression plasmid using Lipofectamine 2000 (Invitrogen). Then, transfected cells were seeded onto 96-well black-wall plate for 18–26 h prior to their use in an experiment.
hENaC-expressing cells were characterized using FLIPER Membrane Potential (FMP) Assay Kit (Molecular Devices Corporation, Sunnyvale, CA, USA). In this assay, changes in the membrane potential were quantified via fluorescence change caused by FMP dye. The hENaC-expressing cells were washed with assay buffer (containing: 130 mM NaCl, 10 mM glucose, 5 mM KCl, 2 mM CaCl2, 1.2 mM MgCl2, and 10 mM HEPES, pH adjusted to 7.4 with NaOH) and subsequently, FMP blue-dye in assay buffer was loaded into the cells at room temperature for 30 min. After dye treatment, S3969 (0.03−10 µM), an ENaC agonist, S3969+Bz (ENaC antagonist, 0.01 µM), or NGCC (0.01−10 µM) was treated to hENaC-expressing cells. The plate was assayed in a FlexStation III plate reader (Molecular devices Corporation) by excitation at 530 nm and measuring the emission at 560 nm.

Where two headings read alike, the source gives them in different places.

Broadly, the IC50 is the concentration that inhibits the measured activity by half. For `N=C(N)NC(=O)c1nc(Cl)c(N)nc1N` [amiloride], the results for the IC50 in the test on human δβγ ENaC and in the test on human αβγ ENaC were approximately 2700 nM and approximately 110 nM, respectively. Moreover, in test [1], the “inhibition of chorda tympani (CT) taste nerve response to NaCl” value is recorded as “about 70%”. In test [2], the “reduction of lingual surface potential to salt stimuli” value is 5–40%.

Broadly, the EC50 is the concentration at which the effect is half-maximal. As to `Cc1cccc2[nH]cc(SC(CC(C)C)C(=O)NCCO)c12` (stereo not drawn) [S3969], the EC50 is 1200 ± 100 nM at αβγ hENaC [3] and 1260 ± 290 nM on αβγ hENaC [4].
